From patent US11845760B2, “PRMT5 inhibitors” (AMGEN INC., priority 2020, dated 2023) come the findings set out here.

The test system of one experiment is HCT116 MTAP null cells. The experiment in a line: HCT116 MTAP null cell line proliferation (CellTiter-Glo cell viability, 6 days). It counts as cell-based. The following applies: HCT116-MTAP null, 144 h, HCT116 MTAP null cells, 6 days of treatment, CellTiter-Glo cell viability; read-out: HCT-116 MTAP null IC50. The procedure, abridged: (§1)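 Viability by CellTiter-Glo after 6 days' drug exposure in wild-type HCT116 and its MTAP-null knockout, with DMSO-only control. Dosing used either 1:3 steps (top 1 or 10 μM) or 22 points in 1:2 steps (top 10 or 50 μM). IC50 taken where the fitted curve crosses 50% of control.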

A further experiment has as its system HCT116 WT cells. The experiment in a line: HCT116 WT cell line proliferation (CellTiter-Glo cell viability, 6 days). It counts as cell-based. The following applies: Homo sapiens, HCT-116, 144 h, HCT116 WT (parent) cells, 6 days of treatment, CellTiter-Glo cell viability; read-out: HCT-116 WT IC50. An outline of the steps: as §1

Regarding `Nc1nc2ccc(C(=O)N3CCOC[C@@H]3c3ccc(C(F)(F)C(F)(F)F)cc3)cc2c2c1COC2` [Example 510, (4-amino-1,3-dihydrofuro[3,4-c]quinolin-8-yl)((3S)-3-(4-(pentafluoroethyl)phenyl)-4-morpholinyl)methanone], the half-maximal inhibitory concentration (IC50) in the experiment on HCT116 MTAP null cells is 43 nM; with HCT116 WT cells it was 1580 nM.

In the case of `Nc1nc2cnc(C(=O)N3CCOC[C@@H]3c3ccc(C(F)(F)C(F)(F)F)cc3)cc2c2c1COC2` [Example 511], the half-maximal inhibitory concentration (IC50) came out at 43 nM in the experiment with HCT116 MTAP null cells and 1130 nM with HCT116 WT cells.

With `Nc1nc2cnc(C(=O)N3CCOC[C@@H]3c3ccc(OC(F)(F)F)cc3)cc2c2c1CCC2` [Example 514, (6-amino-8,9-dihydro-7H-cyclopenta[c][1,7]naphthyridin-2-yl)((3S)-3-(4-(trifluoromethoxy)phenyl)-4-morpholinyl)methanone], the half-maximal inhibitory concentration (IC50) in the experiment with HCT116 MTAP null cells amounted to 210 nM; with HCT116 WT cells it was 2590 nM.

Regarding `C[C@@H]1COC[C@H](c2ccc(C(F)(F)F)cn2)N1C(=O)c1cc2c3c(c(N)nc2cn1)CCC3` [Example 515, (6-amino-8,9-dihydro-7H-cyclopenta[c][1,7]naphthyridin-2-yl)((3R,5S)-3-methyl-5-(5-(trifluoromethyl)-2-pyridinyl)-4-morpholinyl)methanone], the figures for the IC50 in the experiment on HCT116 MTAP null cells and in the experiment on HCT116 WT cells were 47 nM and 541 nM, respectively.

For the molecule `Nc1nc2cnc(C(=O)N3CCOC[C@@H]3c3ccc(OC(F)F)cn3)cc2c2c1COC2` [Example 516, (4-amino-1,3-dihydrofuro[3,4-c][1,7]naphthyridin-8-yl)((3S)-3-(5-(difluoromethoxy)-2-pyridinyl)-4-morpholinyl)methanone], the IC50 is 211 nM in the experiment on HCT116 MTAP null cells and 9120 nM with HCT116 WT cells.

Regarding `C[C@@H]1COC[C@H](c2ccc(C(F)(F)F)cn2)N1C(=O)c1cc2c(cc1F)nc(N)c1c2cnn1C` [Example 517, (4-amino-7-fluoro-3-methyl-3H-pyrazolo[3,4-c]quinolin-8-yl)((3R,5S)-3-methyl-5-(5-(trifluoromethyl)-2-pyridinyl)-4-morpholinyl)methanone], the results for the half-inhibitory concentration (IC50) in the experiment with HCT116 MTAP null cells and with HCT116 WT cells were 8 nM and 151 nM, respectively.

In the case of `Cn1ncc2c3cc(C(=O)N4CCOC[C@@H]4c4ccc(C(F)(F)F)cc4)c(F)cc3nc(N)c21` [Example 518, (4-amino-7-fluoro-3-methyl-3H-pyrazolo[3,4-c]quinolin-8-yl)((3S)-3-(4-(trifluoromethyl)phenyl)-4-morpholinyl)methanone], the figures for the IC50 in the experiment on HCT116 MTAP null cells and with HCT116 WT cells were 86 nM and 4690 nM, respectively.

Consider `C[C@@H]1COC[C@H](c2ccc(C(F)(F)F)cn2)N1C(=O)c1cc2c(cc1F)nc(N)c1cnn(C)c12` [Example 519, (4-amino-7-fluoro-1-methyl-1H-pyrazolo[4,3-c]quinolin-8-yl)((3R,5S)-3-methyl-5-(5-(trifluoromethyl)-2-pyridinyl)-4-morpholinyl)methanone], for which the IC50 with HCT116 MTAP null cells is 4 nM; in the experiment with HCT116 WT cells, 26 nM.

With `C[C@@H]1COC[C@H](c2ccc(C(F)(F)F)cn2)N1C(=O)c1cc2c(cn1)nc(N)c1cnn(C)c12` [Example 520, (4-amino-1-methyl-1H-pyrazolo[4,3-c][1,7]naphthyridin-8-yl)((3R,5S)-3-methyl-5-(5-(trifluoromethyl)-2-pyridinyl)-4-morpholinyl)methanone], the IC50 came out at 18 nM with HCT116 MTAP null cells and 120 nM in the experiment with HCT116 WT cells.

On to `Cn1ncc2c(N)nc3ccc(C(=O)N4CCOC[C@@H]4c4ccc(C(F)(F)F)cc4)cc3c21` [Example 521, (4-amino-1-methyl-1H-pyrazolo[4,3-c]quinolin-8-yl)((3S)-3-(4-(trifluoromethyl)phenyl)-4-morpholinyl)methanone], for which the results for the IC50 in the experiment on HCT116 MTAP null cells and in the experiment on HCT116 WT cells were 30 nM and 2080 nM, respectively.

Take `C[C@@H]1COC[C@H](c2ccc(C(F)(F)F)cn2)N1C(=O)c1cc2c3c(c(N)nc2cn1)COC3` [Example 522, (4-amino-1,3-dihydrofuro[3,4-c][1,7]naphthyridin-8-yl)((3R,5S)-3-methyl-5-(5-(trifluoromethyl)-2-pyridinyl)-4-morpholinyl)methanone]: the values for the IC50 in the experiment with HCT116 MTAP null cells and with HCT116 WT cells were 30 nM and 509 nM, respectively.

As for `C[C@@H]1COC[C@H](c2ccc(C(F)(F)F)cc2)N1C(=O)c1cc2c3c(c(N)nc2cn1)COC3` [Example 523, (4-amino-1,3-dihydrofuro[3,4-c][1,7]naphthyridin-8-yl)((3R,5S)-3-methyl-5-(4-(trifluoromethyl)phenyl)-4-morpholinyl)methanone], the results for the half-inhibitory concentration (IC50) in the experiment with HCT116 MTAP null cells and in the experiment on HCT116 WT cells were 9 nM and 213 nM, respectively.

Consider `C[C@@H]1COC[C@H](c2ccc(C(F)(F)F)nc2)N1C(=O)c1cc2c3c(c(N)nc2cn1)COC3` [Example 524, (4-amino-1,3-dihydrofuro[3,4-c][1,7]naphthyridin-8-yl)((3R,5S)-3-methyl-5-(6-(trifluoromethyl)-3-pyridinyl)-4-morpholinyl)methanone], for which the half-maximal inhibitory concentration (IC50) with HCT116 MTAP null cells amounted to 31 nM; in the experiment with HCT116 WT cells it was 1240 nM.

Regarding `C[C@@H]1COC[C@H](c2ccc(OC(F)(F)F)cc2)N1C(=O)c1cc2c3c(c(N)nc2cn1)COC3` [Example 525, (4-amino-1,3-dihydrofuro[3,4-c][1,7]naphthyridin-8-yl)((3R,5S)-3-methyl-5-(4-(trifluoromethoxy)phenyl)-4-morpholinyl)methanone], the half-inhibitory concentration (IC50) came out at 19 nM in the experiment on HCT116 MTAP null cells and 372 nM in the experiment on HCT116 WT cells.

Regarding `C[C@@H]1COC[C@H](c2ccc(C(F)(F)F)cc2)N1C(=O)c1cc2c3c(c(N)nc2cc1F)COC3` [Example 526, (4-amino-7-fluoro-1,3-dihydrofuro[3,4-c]quinolin-8-yl)((3R,5S)-3-methyl-5-(4-(trifluoromethyl)phenyl)-4-morpholinyl)methanone], the IC50 in the experiment on HCT116 MTAP null cells came out at 6 nM; in the experiment with HCT116 WT cells it was 120 nM.

Turning to `C[C@@H]1COC[C@H](c2ccc(C(F)(F)F)cc2)N1C(=O)c1ccc2nc(N)c3c(c2c1)COC3` [Example 527, (4-amino-1,3-dihydrofuro[3,4-c]quinolin-8-yl)((3R,5S)-3-methyl-5-(4-(trifluoromethyl)phenyl)-4-morpholinyl)methanone], the IC50 came out at 27 nM in the experiment on HCT116 MTAP null cells and 503 nM with HCT116 WT cells.

As for `Nc1nc2cc(F)c(C(=O)N3CCOC[C@@H]3c3ccc(C(F)(F)F)cc3)cc2c2c1COC2` [Example 528, (4-amino-7-fluoro-1,3-dihydrofuro[3,4-c]quinolin-8-yl)((3S)-3-(4-(trifluoromethyl)phenyl)-4-morpholinyl)methanone], the IC50 in the experiment with HCT116 MTAP null cells is 29 nM; with HCT116 WT cells, 1210 nM.

In the case of `Nc1nc2cc(Cl)c(C(=O)N3CCOC[C@@H]3c3ccc(C(F)(F)F)cc3)cc2c2c1COC2` [Example 529, (4-amino-7-chloro-1,3-dihydrofuro[3,4-c]quinolin-8-yl)((3S)-3-(4-(trifluoromethyl)phenyl)-4-morpholinyl)methanone], the half-inhibitory concentration (IC50) in the experiment on HCT116 MTAP null cells worked out at 18 nM; with HCT116 WT cells, 502 nM.

Regarding `C[C@@H]1COC[C@H](c2ccc(OC(F)(F)F)cc2)N1C(=O)c1cc2c3c(c(N)nc2cc1Cl)COC3` [Example 530, (4-amino-7-chloro-1,3-dihydrofuro[3,4-c]quinolin-8-yl)((3R,5S)-3-methyl-5-(4-(trifluoromethoxy)phenyl)-4-morpholinyl)methanone], the IC50 was 4 nM in the experiment on HCT116 MTAP null cells and 60 nM in the experiment on HCT116 WT cells.

Regarding `C[C@@H]1COC[C@H](c2ccc(C(F)(F)F)cc2)N1C(=O)c1cc2c(cc1F)nc(N)c1c2cnn1C` [Example 531, (4-amino-7-fluoro-3-methyl-3H-pyrazolo[3,4-c]quinolin-8-yl)((3R,5S)-3-methyl-5-(4-(trifluoromethyl)phenyl)-4-morpholinyl)methanone], the concentration for half-maximal inhibition (IC50) with HCT116 MTAP null cells was 13 nM; with HCT116 WT cells it was 215 nM.

As to `C[C@@H]1COC[C@H](c2ccc(OC(F)(F)F)cc2)N1C(=O)c1cc2c(cc1F)nc(N)c1c2cnn1C` [Example 532, (4-amino-7-fluoro-3-methyl-3H-pyrazolo[3,4-c]quinolin-8-yl)((3R,5S)-3-methyl-5-(4-(trifluoromethoxy)phenyl)-4-morpholinyl)methanone], the IC50 came to 19 nM in the experiment with HCT116 MTAP null cells and 400 nM with HCT116 WT cells.

As for `C[C@@H]1COC[C@H](c2ccc(C(F)(F)F)cc2)N1C(=O)c1ccc2nc(N)c3c(cnn3C)c2c1` [Example 533, (4-amino-3-methyl-3H-pyrazolo[3,4-c]quinolin-8-yl)((3R,5S)-3-methyl-5-(4-(trifluoromethyl)phenyl)-4-morpholinyl)methanone], the IC50 in the experiment with HCT116 MTAP null cells worked out at 45 nM; in the experiment on HCT116 WT cells it was 2480 nM.

With `C[C@@H]1COC[C@H](c2ccc(OC(F)(F)F)cc2)N1C(=O)c1ccc2nc(N)c3c(cnn3C)c2c1` [Example 534, (4-amino-3-methyl-3H-pyrazolo[3,4-c]quinolin-8-yl)((3R,5S)-3-methyl-5-(4-(trifluoromethoxy)phenyl)-4-morpholinyl)methanone], the IC50 with HCT116 MTAP null cells is 44 nM; with HCT116 WT cells, 2610 nM.

`CCOc1ccc([C@H]2COC[C@@H](C)N2C(=O)c2cc3c4c(c(N)nc3cn2)COC4)nn1` [Example 535, (4-amino-1,3-dihydrofuro[3,4-c][1,7]naphthyridin-8-yl)((3S,5R)-3-(6-ethoxy-3-pyridazinyl)-5-methyl-4-morpholinyl)methanone]: the concentration for half-maximal inhibition (IC50) in the experiment on HCT116 MTAP null cells is 64 nM; in the experiment on HCT116 WT cells, 3160 nM.

With `C[C@@H]1COC[C@H](c2ccc(OC(F)(F)F)cc2)N1C(=O)c1ccc2nc(N)c3c(c2c1)CO[C@@H]3C` [Example 536, ((3R)-4-amino-3-methyl-1,3-dihydrofuro[3,4-c]quinolin-8-yl)((3R,5S)-3-methyl-5-(4-(trifluoromethoxy)phenyl)-4-morpholinyl)methanone], the results for the IC50 in the experiment on HCT116 MTAP null cells and with HCT116 WT cells were 19 nM and 646 nM, respectively.
